Reference: US4312883A, “Furocoumarin for the photochemotherapy of psoriasis and related skin diseases” (Consiglio Nazionale delle Ricerche, priority 1979, dated 1982)
“Also recorded” adds a separate entry of the source. Like-named read-outs stand apart in the source and are kept apart here.

Legend:
DNA [1] = experiment: Dark complex formation (intercalation) with DNA in the ground state, binding parameters; set-up: K (association constants) of the complexes with DNA: unit not given here; settings: for K (association constants) of the complexes with DNA / 1/n (frequency of binding sites): in vitro, ground state; for K (association constants) of the complexes with DNA: McGhee and Von Hippel method; for 1/n (frequency of binding sites): molecules bound per nucleotide; for 1/n (frequency of binding sites), relative / K (association constants), relative: relative (ang = 100)
Text: Dark complex formation: It is known from F. Dall'Acqua, et al. Chem.-Biol. Interactions 21,103 (1978) that the intercalated complex formed by furocoumarins with DNA strongly affects the successive photoaddition increasing the rate of photobinding. […] These parameters have been determined according to the method of McChee and Von Hippel, J.Mol.Biol, 86, 469 (1974).
(a) Determined according to Mc Ghee and Von Hippel, J. Mol. Biol.,

DNA [2] = experiment: Photobinding to DNA, rate constants of the photoreactions; assay type: biochemical; settings: for Rate constants of the photoreactions with DNA: in vitro, UV-A irradiated; for Rate constants of the photoreactions with DNA, relative: relative (ang = 100)
Text: (b) Determined according to F. Dall'Acqua, S. Marciani, F. Zambon and G.
Rodighiero, Photochem. Photobiol., 29,489(1979).
Photobinding capacity to DNA: The introduction of one or two methyl groups in the molecule of angelicin leads to a strong increase of the photobinding to DNA; see Table II. […] Photobiol., 29, 489 (1979).

DNA [3] = experiment: Capacity to form inter-strand cross-linkages in DNA; assay type: biochemical; settings: (psr = 100)
Description: All these compounds were not suitable to photoinduce in DNA inter-strand cross-linkages. […] These tests were carried out according to the method of F. Bordin et al., Photochem. Photobiol., 29,1063 (1979).

[4] = test system: DNA synthesis in Ehrlich ascites tumor cells; experiment: Inhibition of DNA synthesis (and DNA and RNA synthesis) on irradiation at 365 nm; assay type: cell-based; settings: relative (ang = 100)
Text: (§1) Photobiological activity: A significant test for assessing photobiological activity of alkylangelicins is the study of their capacity to inhibit DNA and RNA synthesis in Ehrlich ascites tumor cells. In Table III the capacity of inhibition is expressed as ID50, that is the irradiation does, in terms of quanta at 365 nm, necessary to inhibit in these cells the 50% of the DNA and RNA synthesis in the presence of a constant amount of alkylangelicin. […] Moreover, in general it can be observed that in this simple biological system a close correlation exists between photobiological activity and the capacity to induce photochemical lesions in DNA, that is photoreactivity.

[5] = test system: RNA synthesis in Ehrlich ascites tumor cells; experiment: Inhibition of RNA synthesis on irradiation at 365 nm; assay type: cell-based; settings: relative (ang = 100)
Text: as §1

[6] = test system: Salmonella typhimurium TA 100; experiment: Ames test; assay type: cell-based; settings: Salmonella typhimurium TA 100 his G46 (uvrB^- rfa) pKM101; versus 4,5'-dimethylangelicin
epidermal DNA synthesis [7] = experiment: Inhibition of epidermal DNA synthesis in the mouse in vivo after topical application and UV-A irradiation; settings: light or radiation study, 0.01% methanol solutions, UV-A 9 J/cm^2, read-out: Percent inhibition ± standard error of epidermal DNA synthesis
Description: DNA samples were dissolved in water and their specific radioactivity determined.
Each drug substance was studied using at least six mice.

psoriasis = experiment: Topical photochemotherapy of psoriasis in patients; assay type: in vivo, human; settings: for No. of patients with Excellent result / No. of patients with Fair result / No. of patients with Good result / No. of patients with Poor result: topical 0.1% w/v + UV-A; for No. of patients with Excellent result: Excellent = 90% clearance; for No. of patients with Fair result: Fair = 50-70%; for No. of patients with Good result: Good = 70-90%; for No. of patients with Poor result: Poor 40%
Text: Clinical data: The effectiveness of certain representative alkylangelicins according to the present invention, specifically 5-methylangelicin, 4,5'-dimethylangelicin, 4'-hydroxymethyl-4,5'-dimethylangelicin, 4'-hydroxymethyl-4,5'-dimethylangelicin and 4,5-dimethylangelicin, has been tested by measuring their capacity to resolve psoriasis in various patients. For a direct comparison the efficacy of the parent unsubstituted angelicin and that of three very effective linear furocoumarins, that is 8-methoxypsoralen (8-MOP), 5-methoxypsoralen (5-MOP), and 4,5',8-trimethylpsoralen (TMP) were also tested.
In each treatment four areas of the affected skin were used;
(a) In the first area an alcohol lotion, containing 10% glycerine, of the tested compound (0.1% w/v) was applied until a concentration of […] was reached then left to evaporate by the heat of the body. After half an hour the area was irradiated with high intensity UV-A emitting low pressure mercury fluorescent lamps with a wavelength of 320-400 nm. The irradiation doses were selected in the range of 4.5-13 J/cm^2 for each application as a function of the sensitivity of the skin of the patients; when the skin sensitivity was higher, the light doses were lower and vice versa.
(b) A second area was treated with an alcohol solution of the drug as in (a) but it was covered and maintained in the dark.
(c) A third area, where the drug was not applied, was irradiated as in (a) but in general with higher UV-A doses.
(d) A fourth area was not treated at all, neither with the drug, not with UV-A.
The treatment with the alkylangenlicins referred to above was repeated 5 time a week for two or more weeks; the total number of treatments was between 8 and 20 per subject. In some cases, as for instance with 5-methylangelicin, a good clearing of psoriasis was observed after 8 treatments.
In order to avoid induction of photosensitization processes such as redness and erythema in the reference tests made with the linear furocoumarins 8-MOP, 5-MOP, TMP, lower light doses were used than in the case of alkylangelicins, the treatments were repeated at a frequency of no more than three times a week.

Acute toxicity in mice = settings: mouse, in vivo, po
skin = experiment: Relative skin phototoxicity; settings: (psr = 100)
epidermal DNA synthesis [8] = experiment: Inhibition of the synthesis of epidermal DNA of the mouse in vivo after oral administration and UV-A irradiation; settings: oral 0.25 g/Kg, UV-A 9 J/cm^2 after two hours
Text: Considering that the topical skin tests carried out on mice to evaluate the effectiveness of these substances has yielded data which correlate well with the clinical data, such a test conveniently modified has been adopted to evaluate the effectiveness of the alkylangelicins after oral administration followed by UV-A irradiation.
In this connection experiments have been conducted using mice 20±2 g in weight, that were starved for three hours before oral administration of the alkylangelicins. Groups of 5 mice were fed a suspension of 0.5% methylcellulose in water containing the alkylangelicins of the invention at a dosage of 0.25 g/Kg. The animals were kept in the dark for two hours, that is for the time necessary for absorption, systemic distribution and localization of the drug at the level of the skin. The animals were then irradiated with UV-A light, 9 J/cm^2. Later the animals were sacrificed and the inhibition of the epidermal DNA synthesis was tested; the results obtained are reported in Table VI. The skin on the back, protected from light by a dark paper, was assumed as a control. As a reference 8-MOP, used under the same experimental conditions, was also tested. The significant activity of the alkylangelicins according to the present invention, higher than that of 8-MOP, in inhibiting the epidermal DNA synthesis in mice upon oral administration allows one to consider these compounds as also being effective for oral administration to humans for photochemotherapy of psoriasis and of other skin diseases that are characterized by cellular hyperproliferation.

DNA [9] = settings: (psr = 100); footnote (c), reference compounds; cited from earlier work
melamin pigmentation = settings: Table I; cited from earlier work
[10] = cited from earlier work
DNA [11] = settings: cited from earlier work; for DNA intercalation property / Interstrand cross-linking induction in DNA / Monoadduct forming property: Table I; for Photobinding capacity to DNA: known furocoumarins
DNA synthesis = settings: Table I; cited from earlier work
[12] = known furocoumarins, Table I; cited from earlier work
[13] = Table I; cited from earlier work
E. coli wild type strain = settings: E. coli wild type strains; cited from earlier work
E. coli WP2 trp^- uvrA^- = settings: cited from earlier work
[14] = test system: normal human and guinea pig skin; settings: in vivo; cited from earlier work

Row | Structure (SMILES) | K (association constants) of the complexes with DNA (DNA [1]) | 1/n (frequency of binding sites) (DNA [1]) | 1/n (frequency of binding sites), relative (DNA [1]) | K (association constants), relative (DNA [1]) | Rate constants of the photoreactions with DNA (DNA [2]) [K × 10^-2 × min^-1] | Rate constants of the photoreactions with DNA, relative (DNA [2]) | capacity to form interstrand cross-linkages (DNA [3]) | inhibition of DNA synthesis, relative [4] | inhibition of RNA synthesis, relative [5] | inhibition in vivo at 0.01 % (epidermal DNA synthesis [7]) [%] | No. of patients with Excellent result (psoriasis) [patients] | No. of patients with Fair result (psoriasis) [patients] | No. of patients with Good result (psoriasis) [patients] | No. of patients with Poor result (psoriasis) [patients] | LD50 (Acute toxicity in mice) [mg/kg] | Relative skin phototoxicity (skin) | Percent inhibition ± standard error of epidermal DNA synthesis (epidermal DNA synthesis [8]) [%] | Stimulation of melamin pigmentation (melamin pigmentation) | DNA intercalation property (DNA [11]) | Interstrand cross-linking induction in DNA (DNA [11]) | also measured
1 | Cc1cc2occc2c2oc(=O)ccc12 [5-methylangelicin] | 1560 | 0.071 | 112 | 278 | 3.41 | 298 | 0 | 275 | 281 | 47.5 ± 1.19 | 2 | 0 | 5 | 0 | 2000 | 0 |  |  |  |  | mutagenic activity (Ames test) [6]: of the same order of magnitude as that of 4,5'-dimethylangelicin; efficacy in psoriasis patients (in words) (psoriasis; topical + UV-A): very active, probably more active than the same amount of 8-MOP; number of treatments to good clearing of psoriasis (psoriasis; topical + UV-A, 5 times a week, in some cases): 8 treatments
2 | COc1c2occc2cc2ccc(=O)oc12 [8-MOP, 8-methoxypsoralen, reference compound] | 740 | 0.128 | 203 | 132 | 2.3 | 209 |  | 249 | 93 | 61 ± 1.6 | 3 | 2 | 3 | 2 | 800 | 71 | 39.1 ± 3.7 | strong, well known | strong | strong, well known | capacity to form interstrand cross-linkages (DNA [9]): 63; Carcinogenicity (oral) ([10]; oral): weak; Carcinogenicity (topical) ([10]; topical): strong; Monoadduct forming property (DNA [11]): known, strong; Photobinding capacity to DNA (DNA [11]): known, strong; DNA synthesis inhibiting property (DNA synthesis): known, strong; Photosensitizing activity [12]: known, strong; Mutagenicity [13]: known, strong
3 | O=c1ccc2ccc3occc3c2o1 [angelicin, reference compound] | 560 | 0.063 | 100 | 100 | 1.1 | 100 | 0 |  |  | 17.5 ± 2.5 | 0 | 0 | 0 | 8 |  | 0 | 28 ± 2 | absent | evident | absent | Monoadduct forming property (DNA [11]): weak; Photobinding capacity to DNA (DNA [11]): low capacity of photobinding to DNA; also recorded: low photobinding capacity towards DNA; Photobinding capacity to DNA (DNA [11]; listed as Angelicin): weak; DNA synthesis inhibiting property (DNA synthesis): weak; mutagenic activity / mutation frequency, wild type (E. coli wild type strain): not detectable; mutagenic activity, strains deficient in known repair functions (E. coli WP2 trp^- uvrA^-): Only very low mutagenic activity; Photosensitizing activity [12]: absent; Mutagenicity [13]: weak; erythema or hyperpigmentation on the skin [14]: does not provoke either erythema or hyperpigmentation on the skin
